Reference: the supplement of paper PMC10307832

Columns and labels:
Assay in all cases: relative viability (nuclei count vs DMSO), 5 days (fraction); higher = more cells survive
Afatinib = compound: CN(C)C/C=C/C(=O)Nc1cc2c(Nc3ccc(F)c(Cl)c3)ncnc2cc1O[C@H]1CCOC1 [Afatinib]
In short: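 Five library-drug doses spaced by √10 were pinned onto vehicle-anchored 1536-well plates of lung cancer cell lines that had been kept overnight at 37 °C. Cells went 5 days without medium change, then were fixed, permeabilised and Hoechst-stained together, imaged at 4× and counted by MetaXpress. Viability is the ratio of treated-well to vehicle-well nuclei, taken as a median over plates. Plates required control CV below 25% and at least one doubling.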

Afatinib + Phenformin = compound: CN(C)C/C=C/C(=O)Nc1cc2c(Nc3ccc(F)c(Cl)c3)ncnc2cc1O[C@H]1CCOC1 [Afatinib] + N=C(N)NC(=N)NCCc1ccccc1 [Phenformin] (partner 250 µM)
In short: (§1)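 Lung cancer cell lines in 1536-well plates got either a single drug or a fixed anchor-drug dose together with five library-drug doses (not always all listed) in √10 steps, by pin tool, on the day after seeding. Nuclei were counted after 5 days, and relative viability is the treated-to-vehicle ratio of nuclei counts. Values are medians of duplicate plates.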

Afatinib + Tozasertib = compound: CN(C)C/C=C/C(=O)Nc1cc2c(Nc3ccc(F)c(Cl)c3)ncnc2cc1O[C@H]1CCOC1 [Afatinib] + Cc1cc(Nc2cc(N3CCN(C)CC3)nc(Sc3ccc(NC(=O)C4CC4)cc3)n2)n[nH]1 [Tozasertib] (partner 0.1 µM)
In short: as §1

Afatinib + Navitoclax = compound: CN(C)C/C=C/C(=O)Nc1cc2c(Nc3ccc(F)c(Cl)c3)ncnc2cc1O[C@H]1CCOC1 [Afatinib] + CC1(C)CCC(c2ccc(Cl)cc2)=C(CN2CCN(c3ccc(C(=O)NS(=O)(=O)c4ccc(N[C@H](CCN5CCOCC5)CSc5ccccc5)c(S(=O)(=O)C(F)(F)F)c4)cc3)CC2)C1 [Navitoclax] (partner 0.5 µM)
In short: as §1

Cell Line	relative viability (Afatinib; 0.005 µM)	relative viability (Afatinib; 0.01581 µM)	relative viability (Afatinib; 0.05 µM)	relative viability (Afatinib; 0.1581 µM)	relative viability (Afatinib; 0.5 µM)	relative viability (Afatinib + Phenformin; first compound 0.005 µM)	relative viability (Afatinib + Phenformin; first compound 0.01581 µM)	relative viability (Afatinib + Phenformin; first compound 0.05 µM)	relative viability (Afatinib + Phenformin; first compound 0.1581 µM)	relative viability (Afatinib + Phenformin; first compound 0.5 µM)	relative viability (Afatinib + Tozasertib; first compound 0.005 µM)	relative viability (Afatinib + Tozasertib; first compound 0.01581 µM)	relative viability (Afatinib + Tozasertib; first compound 0.05 µM)	relative viability (Afatinib + Tozasertib; first compound 0.1581 µM)	relative viability (Afatinib + Tozasertib; first compound 0.5 µM)	relative viability (Afatinib + Navitoclax; first compound 0.005 µM)	relative viability (Afatinib + Navitoclax; first compound 0.01581 µM)	relative viability (Afatinib + Navitoclax; first compound 0.05 µM)	relative viability (Afatinib + Navitoclax; first compound 0.1581 µM)	relative viability (Afatinib + Navitoclax; first compound 0.5 µM)
201T	1.01	0.942	0.944	0.92	0.956	0.475	0.444	0.43	0.398	0.387	1.01	0.915	0.948	0.806	0.827	1.18	1.2	1.21	1.15	1.23
A549	0.969	1	0.938	0.867	0.858	0.152	0.154	0.192	0.162	0.15	–	–	–	–	–	1.3	1.11	1.2	1.09	1.16
A-427	1.05	0.918	0.99	1.02	1.01	0.33	0.248	0.371	0.267	0.32	0.204	0.193	0.192	0.173	0.225	1.01	0.997	1.05	0.965	0.992
ABC-1	0.876	0.77	0.876	0.874	0.912	0.245	0.241	0.264	0.239	0.325	0.172	0.123	0.177	0.168	0.165	–	–	–	–	–
BEN	1.04	0.897	1.05	1.09	1.06	0.29	0.261	0.251	0.253	0.286	0.461	0.512	0.57	0.475	0.494	0.0693	0.0755	0.16	0.0734	0.0635
CAL-12T	1	0.843	0.748	0.489	0.654	0.57	0.388	0.361	0.244	0.407	0.315	0.339	0.311	0.168	0.189	1.32	1.12	1.47	–	0.648
COR-L23	1.08	0.944	1.11	1.04	1.01	0.479	0.446	0.449	0.437	0.45	0.216	0.202	0.216	0.167	0.166	1.14	0.982	0.948	0.997	1.03
COR-L 105	0.522	0.387	0.45	0.287	0.309	0.294	0.22	0.211	0.203	0.249	0.333	0.255	0.258	0.165	0.206	0.444	0.373	0.315	0.293	0.26
Calu-6	1.09	1	1.02	0.997	0.986	–	–	–	–	–	–	–	–	–	–	0.836	0.786	0.831	0.914	0.81
ChaGo-K-1	1.07	1	0.996	0.977	0.999	0.474	0.466	0.444	0.45	0.431	0.231	0.239	0.225	0.215	0.212	1.12	0.707	0.979	0.826	1.05
EBC-1	1.02	0.976	1.02	0.969	1.01	–	–	–	–	–	–	–	–	–	–	0.507	0.457	0.465	0.396	0.343
EKVX	0.779	0.718	0.51	0.292	0.334	0.218	0.222	0.215	0.129	0.197	0.379	0.423	0.31	0.132	0.169	0.655	0.46	0.349	0.26	0.197
EMC-BAC-2	1.12	0.821	1.14	1.01	1.02	0.502	0.512	0.563	0.462	0.476	0.315	0.299	0.342	0.326	0.309	1.09	1.1	1.02	0.895	0.906
EPLC-272H	0.915	0.687	0.831	0.718	0.718	0.35	0.272	0.231	0.24	0.264	0.205	0.427	0.133	0.164	0.253	1.21	0.944	0.911	0.742	0.868
H3255	0.418	0.237	0.244	0.244	0.26	0.228	0.23	0.203	0.202	0.228	0.315	0.204	0.222	0.168	0.195	0.101	0.0707	0.086	0.0584	0.076
HARA	0.947	0.55	0.471	0.62	0.597	0.391	0.27	0.327	0.376	0.375	0.0895	0.0918	0.0646	0.0722	0.062	1.17	1.12	1.06	0.677	0.866
HCC-15	1.04	1.06	1.04	0.979	0.999	0.487	0.487	0.488	0.47	0.517	0.49	0.488	0.422	0.299	0.406	0.682	0.719	0.745	0.684	0.686
HCC-44	1.08	1	1.01	1.02	0.982	0.233	0.184	0.232	0.395	0.239	1.18	1.02	1	0.946	0.897	1.01	1.01	1.02	0.899	1.13
HCC-78	1.07	0.89	0.898	0.791	0.815	0.892	0.515	0.593	0.648	0.559	0.474	0.405	0.403	0.312	0.47	0.776	0.76	0.62	0.636	0.679

Cell Line	relative viability (Afatinib; 0.005 µM)	relative viability (Afatinib; 0.01581 µM)	relative viability (Afatinib; 0.05 µM)	relative viability (Afatinib; 0.1581 µM)	relative viability (Afatinib; 0.5 µM)	relative viability (Afatinib + Phenformin; first compound 0.005 µM)	relative viability (Afatinib + Phenformin; first compound 0.01581 µM)	relative viability (Afatinib + Phenformin; first compound 0.05 µM)	relative viability (Afatinib + Phenformin; first compound 0.1581 µM)	relative viability (Afatinib + Phenformin; first compound 0.5 µM)	relative viability (Afatinib + Tozasertib; first compound 0.005 µM)	relative viability (Afatinib + Tozasertib; first compound 0.01581 µM)	relative viability (Afatinib + Tozasertib; first compound 0.05 µM)	relative viability (Afatinib + Tozasertib; first compound 0.1581 µM)	relative viability (Afatinib + Tozasertib; first compound 0.5 µM)	relative viability (Afatinib + Navitoclax; first compound 0.005 µM)	relative viability (Afatinib + Navitoclax; first compound 0.01581 µM)	relative viability (Afatinib + Navitoclax; first compound 0.05 µM)	relative viability (Afatinib + Navitoclax; first compound 0.1581 µM)	relative viability (Afatinib + Navitoclax; first compound 0.5 µM)
HCC-366	1.03	1.04	1.03	0.985	0.989	0.588	0.61	0.611	0.632	0.595	0.122	0.143	0.0823	0.0878	0.069	1.14	1.04	1.18	1	1.06
HCC-827	0.172	0.169	0.212	0.175	0.162	0.137	0.119	0.152	0.119	0.137	0.0972	0.11	0.112	0.131	0.112	0.173	0.168	0.157	0.18	0.147
HOP-62	1.12	0.989	1.05	1.03	1.08	0.862	0.561	0.748	0.719	0.629	0.43	0.347	0.385	0.37	0.435	1.3	1.09	1.19	1.11	1.09
IA-LM	0.925	0.868	0.905	0.883	0.871	–	–	–	–	–	–	–	–	–	–	0.689	0.821	0.906	0.796	0.933
LC-2-ad	1.06	0.957	1.04	0.956	1.05	0.66	0.514	0.585	0.541	0.52	0.507	0.48	0.439	0.483	0.431	0.483	0.458	0.419	0.322	0.32
LCLC-97TM1	1.1	0.878	1.01	0.993	0.943	0.439	0.398	0.438	0.404	0.391	0.248	0.247	0.159	0.268	0.179	0.383	0.546	0.411	0.344	0.455
LCLC-103H	0.962	0.945	0.974	0.945	1.03	0.319	0.358	0.326	0.37	0.353	0.425	0.508	0.441	0.516	0.49	–	–	–	–	–
LK-2	1.25	0.91	0.926	0.977	0.956	0.471	0.306	0.422	0.488	0.574	0.161	0.173	0.2	0.182	0.166	1.02	0.779	0.868	0.883	0.835
NCI-H358	0.825	0.566	0.455	0.282	0.302	0.266	0.171	0.171	0.163	0.175	0.0992	0.111	0.0922	0.0887	0.076	–	–	–	–	–
NCI-H522	0.929	0.785	0.703	0.786	0.735	0.729	0.584	0.643	0.532	0.698	0.512	0.535	0.521	0.449	0.401	–	–	–	–	–
NCI-H650	1.06	0.974	1.07	0.89	0.875	0.498	0.46	0.446	0.498	0.351	0.846	0.735	0.782	0.721	0.683	–	–	–	–	–
NCI-H661	1.02	0.863	0.831	0.626	0.691	0.292	0.255	0.253	0.247	0.244	0.34	0.367	0.367	0.361	0.377	–	–	–	–	–
NCI-H1299	0.992	0.992	1.06	1.01	0.98	–	–	–	–	–	–	–	–	–	–	1.02	1.02	1.13	1.11	1.06
NCI-H1563	0.992	0.932	0.97	0.895	0.99	0.625	0.667	0.649	0.651	0.623	–	–	–	–	–	–	–	–	–	–
NCI-H1648	0.881	0.765	0.437	0.478	0.457	–	–	–	–	–	0.734	0.624	0.592	0.241	0.311	–	–	–	–	–
NCI-H1703	1.25	0.749	1.03	0.853	0.713	–	–	–	–	–	–	–	–	–	–	1.22	0.95	1.34	0.746	0.641
NCI-H1792	1.09	0.786	0.853	0.988	0.661	0.16	0.198	0.398	0.2	0.238	–	–	–	–	–	0.745	0.537	0.587	0.629	0.625
NCI-H2342	0.896	0.936	0.889	0.826	0.726	0.641	0.488	0.575	0.519	0.477	0.464	0.545	0.472	0.421	0.393	–	–	–	–	–
